From patent US20230391779A1, “BICYCLIC COMPOUNDS, COMPOSITIONS AND USE THEREOF” (Betta Pharmaceuticals Co., Ltd., priority 2020, published 2023) come the findings set out here.

Data set [1] relates to TEAD-YAP/TAZ interaction. As to the kind of experiment: CTGF ELISA assay. As to conditions: CTGF in culture supernatant of NCI-H2052 cells, 24 hours with compound. The format is cell-based, human. The method, boiled down:
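NCI-H2052 cells treated 24 h at 37 °C with compound (10000–0.61 nM, 0.5% DMSO); secreted CTGF in supernatant measured by sandwich ELISA (OD 450 nm) against a standard curve. EC50 fitted from CTGF concentration-response curves.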
Background: ELISA stands for enzyme-linked immunosorbent assay.

Data set [2] deals with NCI-H226 cells. Nature of the data set: BRDU assay (cell proliferation). Type of data set: cell-based. As to conditions: Homo sapiens, proliferation inhibition, 1% FBS medium. On the procedure: PerkinElmer's DELFIA® Cell proliferation kit (PerkinElmer, Cat: AD0200) was used to detect the inhibition on the proliferation of NCI-H226 cells (ATCC, CRL-5826). • a) Seeded 1500/well for NCI-H226 cell into a 96-well plate. • b) After 24 hours, compound was added to wells with 1% FBS medium conditions. The final testing concentrations of test compounds were […]. • c) NCI-H226 cells were incubated for 72 hours in incubator. • d) Diluted BrdU Labeling Reagent 100-fold with medium and added […] per well. The NCI-H226 cells were incubated 24 h in 5% CO2 at 37° C. incubator. • e) Detect cell proliferation according BrdU kit, and the luminescence signal value of each well on the multifunctional microplate reader was readed.
Data analysis: • Use GraphPad Prism 6 software to calculate IC50 and plot effect-dose curve of compounds.
Y=Bottom+(Top−Bottom)/(1+10^((LogIC50−X)×HillSlope)). • Y was the inhibition %, • X was the log concentration of compounds.
Inhibition %=(signalHC−signalcomp)/(signalHC−signalLC); • HC (high control) was DMSO group, • LC (low control) was 10 uM staurosporine group, • Comp was administration group.
IC50 data obtained for the Example compounds are provided in Table 7, and the inhibition curve in NCI-H226 cell line are as shown in FIG. 1-7, wherein X axis is compound concentration (nm), Y axis is the inhibition %.

Data set [3] relates to NCI-H226 human lung squamous cell carcinoma xenograft. Nature of the data set: In vivo efficacy, subcutaneous NCI-H226 xenograft model. On the set-up: species or system BALB/c nude mice. As to conditions: QD, oral, tumor volume at day 28. On the procedure:
In vivo pharmacodynamic and efficacy studies of compound 5, compound 6, and compound 124 in the subcutaneous NCI-H226 human lung squamous cell carcinoma xenograft model on BALB/c nude mice.
(§1) Each mouse (D000521 BALB/c-Nu, GemPharmatech Co., Ltd.) was inoculated subcutaneously at the right flank with NCI-H226 tumor cells (ATCC, CRL-5826) (1×107) in 0.2 mL of PBS with Matrigel (Corning, 356234) (1:1) for tumor development. Treatments were started when the average tumor size reached approximately 100-150 mm3. The test article was administered to the mice orally once a day from the day of grouping, total 28 days (QD×28 Days). Body weight change of animals was monitored regularly as an indicator of drug safety. Tumor volumes were measured twice weekly in two dimensions using a caliper, and the volume was expressed in mm3 using the formula “V=(LλW^2)/2”, where V is the tumor volume, L is the tumor length (the longest tumor dimension) and W is the tumor width (the longest tumor dimension perpendicular to L). Therapeutic efficacy was evaluated by tumor growth inhibition TGI (%)·TGI (%)=[1−(Ti−T0)/(Vi−V0)]×100; Ti is the average tumor volume of a treatment group on a given day, TO is the average tumor volume of the treatment group on day 0, Vi is the average tumor volume of the vehicle control group on the same day with Ti, and V0 is the average tumor volume of the vehicle group on day 0.

The nature of data set [4]: Body weight change in NCI-H226 xenograft model. Type of data set: in vivo, BALB/c nude mice. As to conditions: daily oral dosing, 28 days, mice bearing NCI-H226 tumor. On the procedure:
as §1

The nature of data set [5]: Pharmacokinetics in plasma following PO cassette dosing in mice. The format is in vivo. As to conditions: mouse, Balb/C female mice, 5 mg/kg. On the procedure:
Adult Balb/C female mice (6-7 weeks, Vitalriver) were received to cassette dosing of the test compounds with 10-20% DMSO, 10% Solutol (Kolliphor HS 15, Beijing Fengli Jingqiu Pharmaceutical Co., Ltd.) and 80-70% H2O as excipients. The mice (n=3) were giving oral administration (intragastric administration) at a dose of 5 mg/kg. Time of blood collection: 30 min, 2 h, 4 h. About 0.1 mL of whole blood was collected from retro-orbital venous plexus, and placed into tubes that contained EDTA as an anticoagulant. The samples were centrifuged at 4° C. and 4000 rpm for 10 min. The plasma was transferred into centrifuge tubes, and stored at −20° C. before being analyzed. Concentrations of test compounds in the plasma samples were analyzed with liquid chromatography-tandem mass spectrometry (LC-MS/MS). Plasma concentration-time data of individual animals was analyzed using Microsoft Excel 2010. Non-compartmental model was introduced in concentration analysis. The pharmacokinetic parameters of the test compounds were calculated using WinNonlin (version 4.1; Pharsight) software.

By EC50 is commonly meant the concentration that produces a half-maximal response. The IC50 is the concentration at which inhibition is half-maximal. As to `C=C(F)C(=O)N1CC(n2nc(-c3ccc(C(F)(F)F)cc3)c3ncccc32)C1` [Compound 6, 2-fluoro-1-(3-(3-(4-(trifluoromethyl)phenyl)-1H-pyrazolo[4,3-b]pyridin-1-yl)azetidin-1-yl)prop-2-en-1-one], the EC50 in data set [1] was 2 nM. 140 nM corresponded to half-maximal inhibition in data set [2] (IC50). Moreover, the entries for the “TGI (%)” value in data set [3] (2 mg/kg) and in data set [3] (10 mg/kg) were 77.1% and 88.6%, respectively. In addition, the body weight loss result in data set [4] is “no significant body weight loss”.
A word on the Cmax: it is the highest concentration seen after dosing. The term AUC denotes the area under the concentration-time curve, a measure of exposure. Read a high AUC as high exposure. For `C=C(F)C(=O)N1CC(n2nc(-c3ccc(C(F)(F)F)nc3)c3cccnc32)C1` [Compound 124, 2-fluoro-1-(3-(3-(6-(trifluoro-methyl)pyridin-3-yl)-1H-pyrazolo[3,4-b]pyridin-1-yl)-azetidin-1-yl)prop-2-en-1-one], the EC50 in data set [1] turned out to be 14 nM. For the same compound, in data set [2], it took 20.7 nM to reach half-maximal inhibition (IC50). The compound also yielded a Cmax in data set [5] of 7190 ng/mL. In data set [5] (blood collection 30 min, 2 h, 4 h), this compound returned an AUC of 24300 ng·h/mL. Moreover, the “TGI (%)” value in data set [3] (2 mg/kg) is reported as 67.3%. Further, the body weight loss entry in data set [4] is reported as “no significant body weight loss”.
